Assay results taken from the supplement of paper PMC10307832.

Tests used:
Assay in all cases: relative viability (nuclei count vs DMSO), 5 days (fraction); higher = more cells survive
BI-D1870 + Palbociclib = compound: CC(C)CCN1c2nc(Nc3cc(F)c(O)c(F)c3)ncc2N(C)C(=O)C1C [BI-D1870] + CC(=O)c1c(C)c2cnc(Nc3ccc(N4CCNCC4)cn3)nc2n(C2CCCC2)c1=O [Palbociclib] (partner 0.5 µM)
How it was run: (§1)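 Dosing by pin tool came one day after lung cancer cell lines were seeded in 1536-well plates, using either one drug or a fixed anchor-drug dose plus five library-drug doses (not always all listed) in √10 steps. After 5 days, nuclei were counted on 4× images. Relative viability is treated-well nuclei count divided by vehicle-well nuclei count, and values are medians of duplicate plates.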

BI-D1870 + Decitabine = compound: CC(C)CCN1c2nc(Nc3cc(F)c(O)c(F)c3)ncc2N(C)C(=O)C1C [BI-D1870] + Nc1ncn([C@H]2C[C@H](O)[C@@H](CO)O2)c(=O)n1 [Decitabine] (partner 2 µM)
How it was run: as §1

BI-D1870 + Dasatinib = compound: CC(C)CCN1c2nc(Nc3cc(F)c(O)c(F)c3)ncc2N(C)C(=O)C1C [BI-D1870] + Cc1nc(Nc2ncc(C(=O)Nc3c(C)cccc3Cl)s2)cc(N2CCN(CCO)CC2)n1 [Dasatinib] (partner 0.075 µM)
How it was run: as §1

Zebularine + Alpelisib = compound: O=c1ncccn1[C@@H]1O[C@H](CO)[C@@H](O)[C@H]1O [Zebularine] + Cc1nc(NC(=O)N2CCC[C@H]2C(N)=O)sc1-c1ccnc(C(C)(C)C(F)(F)F)c1 [Alpelisib] (partner 2 µM)
How it was run: as §1

For UMC-11, the relative viability (BI-D1870 + Palbociclib; first compound 0.04 µM) was 0.331, the relative viability (BI-D1870 + Palbociclib; first compound 0.1265 µM) was 0.347 and the relative viability (BI-D1870 + Palbociclib; first compound 0.4 µM) was 0.327. The relative viability (BI-D1870 + Palbociclib; first compound 1.265 µM) was 0.309, the relative viability (BI-D1870 + Palbociclib; first compound 4 µM) was 0.272 and the relative viability (BI-D1870 + Decitabine; first compound 0.04 µM) was 0.581. It also gave a relative viability (BI-D1870 + Decitabine; first compound 0.1265 µM) of 0.466, a relative viability (BI-D1870 + Decitabine; first compound 0.4 µM) of 0.669 and a relative viability (BI-D1870 + Decitabine; first compound 1.265 µM) of 0.674. For the same cell line, the relative viability (BI-D1870 + Decitabine; first compound 4 µM) was 0.622, the relative viability (BI-D1870 + Dasatinib; first compound 0.04 µM) was 0.579 and the relative viability (BI-D1870 + Dasatinib; first compound 0.1265 µM) was 0.454. For the same cell line, the relative viability (BI-D1870 + Dasatinib; first compound 0.4 µM) was 0.481, the relative viability (BI-D1870 + Dasatinib; first compound 1.265 µM) was 0.393 and the relative viability (BI-D1870 + Dasatinib; first compound 4 µM) was 0.142. It also gave a relative viability (Zebularine + Alpelisib; first compound 1 µM) of 1.08, a relative viability (Zebularine + Alpelisib; first compound 3.162 µM) of 0.958 and a relative viability (Zebularine + Alpelisib; first compound 10 µM) of 0.419. For the same cell line, the relative viability (Zebularine + Alpelisib; first compound 31.62 µM) was 0.789 and the relative viability (Zebularine + Alpelisib; first compound 100 µM) was 0.419.
